For assay [1], the target named is T1, hCav3.2 channels (T-type; CACNA1H) (Homo sapiens, UniProt O95180, V664A).
T1 construct: predicted protein is equivalent to the full-length human variant NP_066921; expressed in transfected cells; plasmid pCIN5-human-alpha1H
Nature of the assay: Cav3.2 assay (T-type), IonWorks Quattro planar array electrophysiology in stable HEK293 cells. The following applies: for IC50: current elicited by the 1st depolarising pulse inhibited by 50%, read-out: pIC50 (tonic) (converted). The format is cell-based. An excerpt: The ability of the compounds of the invention to modulate the voltage-gated calcium channel subtype Cav3.2 (T-Type) may be determined by the following assay.
Stable cell lines expressing hCav3.2 channels were created by transfecting HEK293 cells with the plasmid pCIN5-human-alpha1H. pCIN5-human-alpha1H predicted protein is equivalent to the full-length human variant NP_066921 for the human ion channel CACNA1H (voltage dependent calcium channel T type alpha 1H subunit), the longer variant form. It contains minor alleles for two SNPs (Ala 664 and Arg 2077). However, in the absence of any knowledge about compound binding at this ion channel, these rare variants are not seen as issues. Stable cell line was selected by 500 ug/ml G418 (geneticin). The best cell line clone was selected by IonWorks. Cells were cultured in DMEM/F12 medium supplemented by 10% Foetal Bovine Serum (Gibco/Invitrogen #041-95750), 1% non-essential amino acids (PAA, M11-003) and 1% Penicillin-Streptomycin (Invitrogen, 15140-122). 500 ug/ml of G418 (PAA, P11-012) was added to maintain channel expression. Cells were grown and maintained at 37° C. in a humidified environment containing 5% CO2 in air. Cells were detached from the T175 culture flask for passage and harvesting using TrypLE (Gibco/Invitrogen cat #12604). For the experiment, cells were plated in a T175 culture flask 48 hours before running the assay to reach a 50-80% confluence the day of the experiment.
Cells were grown to 50-80% confluence in a T175 flask. Cells were removed from the incubator and the media was aspirated. Cells were washed with 5 ml of warmed (37° C.) TrypLE and then 3 ml of warmed (37° C.) TrypLE was added to the flask for 6 min. The flask was tapped to dislodge cells and 5 ml of warmed (37° C.) external buffer with barium and magnesium was added to prepare a cell suspension. Cell suspension was then placed into a 15 ml centrifuge tube and centrifuged for 2 min at 1000 rpm. After centrifugation, the supernatant was removed and the cell pellet was resuspended in 4-5 ml of pre-warmed (37° C.) external solution with barium and magnesium using a 5 ml pipette to break up the pellet.
Currents were recorded at room temperature using the IonWorks Quattro™ planar array electrophysiology technology (Molecular Devices Corp.) with PatchPlate™ PPC for Ionworks Quattro (Molecular Devices, 9000-0902). Stimulation protocols and data acquisition were carried out using a microcomputer (Dell Pentium 4). In order to determine planar electrode hole resistances (Rp), a 10 mV voltage step was applied across each well. These measurements were performed before cell addition. After cell addition a seal test was performed by applying a voltage step from −80 mV to −70 mV for 160 ms prior to antibiotic amphotericin-B solution (Sigma, […]) circulation to achieve intracellular access. Leak subtraction was conducted in all experiments by applying a 80 ms hyperpolarizing (10 mV) prepulse followed by a 80 ms at the holding potential before the test pulses, to measure leak current. Test pulses stepping from the holding potential of −120 mV to −40 mV were applied for 25 ms and repeated 10 times at a frequency of 3 Hz. In all experiments, the test pulse protocol was performed in the absence (pre-read) and presence (post-read) of a compound. Pre- and post-reads were separated by a compound addition followed by a 10 minute incubation.
The intracellular solution contained the following (in mM): K-gluconate 120, KCl 20, MgCl2 5, EGTA 5, HEPES 10, adjusted to pH 7.35.
Amphotericin-B solution was prepared as 50 mg/ml stock solution in DMSO and diluted to a final working concentration of 0.2 mg/ml in intracellular solution. The external solution contained the following (in mM): Na-gluconate 120, NaCl 20, HEPES 10, MgCl2 1, BaCl2 5, with a pH of 7.35.
Compounds were prepared in DMSO as 10 mM stock solutions and subsequent 1:3 serial dilutions were performed. […]
On the technique in general: Patch clamp records ionic current or voltage across a cell membrane.

Assay [2] concerns the target T2, hCav2.2 (N-type) calcium channel: human Cav2.2α (α1B) subunit with human β3 and α2δ1 auxiliary subunits (Homo sapiens, UniProt Q00975).
T2 construct: expressed in transfected cells; plasmids pCIN5-hCav2.2, pCIH-hCav β3, pCIP-α2δ1
Nature of the assay: hCav2.2 assay (N-type), IonWorks planar array electrophysiology in stable HEK293 cells. To be noted: hydrochloride. The format is cell-based. How it is done:
Compounds as defined in the first or second aspect may be tested for in vitro biological activity in the hCav2.2 assay (N-type) in accordance with the following studies:
Stable cell lines expressing the human Cav2.2α (α1B) subunit, along with the human β3 and α2δ1 auxiliary subunits were created following sequential transfection and selection of human embryonic kidney (HEK293) cells. HEK293 cells were cultured in Dulbecco's modified Eagles media/F12 media (Invitrogen, Cat #041-95750V) containing 10% fetal bovine serum, with added L-glutamine (2 mM; Invitrogen, Cat #25030-024) and non-essential amino acids (5%; Invitrogen, Cat #11140-035). […] These clonal cell lines were assessed for Cav2.2 α/β3-mediated current expression using the IonWorks planar array electrophysiology technology (described below). […]
Currents were recorded at room temperature (21-23° C.) using the IonWorks planar array electrophysiology technology (Molecular Devices Corp.). […] In all experiments, the test pulse protocol was performed in the absence (pre-read) and presence (post-read) of a compound. Pre- and post-reads were separated by a compound addition followed by a 3-3.5 min incubation. […]

“And” between values parts separate entries of the source, which are not always exact repeats. Equal values may be shown once. Where a name gives a salt, the structure may show the parent alone. Where only a bound is given, the exact number is not on record here.

The text below walks through data of patent US8697703B2, “Piperazine derivatives for blocking Cav2.2 calcium channels” (Convergence Pharmaceuticals Limited, priority 2010, dated 2014).

T1 sequence (O95180 whole entry V664A): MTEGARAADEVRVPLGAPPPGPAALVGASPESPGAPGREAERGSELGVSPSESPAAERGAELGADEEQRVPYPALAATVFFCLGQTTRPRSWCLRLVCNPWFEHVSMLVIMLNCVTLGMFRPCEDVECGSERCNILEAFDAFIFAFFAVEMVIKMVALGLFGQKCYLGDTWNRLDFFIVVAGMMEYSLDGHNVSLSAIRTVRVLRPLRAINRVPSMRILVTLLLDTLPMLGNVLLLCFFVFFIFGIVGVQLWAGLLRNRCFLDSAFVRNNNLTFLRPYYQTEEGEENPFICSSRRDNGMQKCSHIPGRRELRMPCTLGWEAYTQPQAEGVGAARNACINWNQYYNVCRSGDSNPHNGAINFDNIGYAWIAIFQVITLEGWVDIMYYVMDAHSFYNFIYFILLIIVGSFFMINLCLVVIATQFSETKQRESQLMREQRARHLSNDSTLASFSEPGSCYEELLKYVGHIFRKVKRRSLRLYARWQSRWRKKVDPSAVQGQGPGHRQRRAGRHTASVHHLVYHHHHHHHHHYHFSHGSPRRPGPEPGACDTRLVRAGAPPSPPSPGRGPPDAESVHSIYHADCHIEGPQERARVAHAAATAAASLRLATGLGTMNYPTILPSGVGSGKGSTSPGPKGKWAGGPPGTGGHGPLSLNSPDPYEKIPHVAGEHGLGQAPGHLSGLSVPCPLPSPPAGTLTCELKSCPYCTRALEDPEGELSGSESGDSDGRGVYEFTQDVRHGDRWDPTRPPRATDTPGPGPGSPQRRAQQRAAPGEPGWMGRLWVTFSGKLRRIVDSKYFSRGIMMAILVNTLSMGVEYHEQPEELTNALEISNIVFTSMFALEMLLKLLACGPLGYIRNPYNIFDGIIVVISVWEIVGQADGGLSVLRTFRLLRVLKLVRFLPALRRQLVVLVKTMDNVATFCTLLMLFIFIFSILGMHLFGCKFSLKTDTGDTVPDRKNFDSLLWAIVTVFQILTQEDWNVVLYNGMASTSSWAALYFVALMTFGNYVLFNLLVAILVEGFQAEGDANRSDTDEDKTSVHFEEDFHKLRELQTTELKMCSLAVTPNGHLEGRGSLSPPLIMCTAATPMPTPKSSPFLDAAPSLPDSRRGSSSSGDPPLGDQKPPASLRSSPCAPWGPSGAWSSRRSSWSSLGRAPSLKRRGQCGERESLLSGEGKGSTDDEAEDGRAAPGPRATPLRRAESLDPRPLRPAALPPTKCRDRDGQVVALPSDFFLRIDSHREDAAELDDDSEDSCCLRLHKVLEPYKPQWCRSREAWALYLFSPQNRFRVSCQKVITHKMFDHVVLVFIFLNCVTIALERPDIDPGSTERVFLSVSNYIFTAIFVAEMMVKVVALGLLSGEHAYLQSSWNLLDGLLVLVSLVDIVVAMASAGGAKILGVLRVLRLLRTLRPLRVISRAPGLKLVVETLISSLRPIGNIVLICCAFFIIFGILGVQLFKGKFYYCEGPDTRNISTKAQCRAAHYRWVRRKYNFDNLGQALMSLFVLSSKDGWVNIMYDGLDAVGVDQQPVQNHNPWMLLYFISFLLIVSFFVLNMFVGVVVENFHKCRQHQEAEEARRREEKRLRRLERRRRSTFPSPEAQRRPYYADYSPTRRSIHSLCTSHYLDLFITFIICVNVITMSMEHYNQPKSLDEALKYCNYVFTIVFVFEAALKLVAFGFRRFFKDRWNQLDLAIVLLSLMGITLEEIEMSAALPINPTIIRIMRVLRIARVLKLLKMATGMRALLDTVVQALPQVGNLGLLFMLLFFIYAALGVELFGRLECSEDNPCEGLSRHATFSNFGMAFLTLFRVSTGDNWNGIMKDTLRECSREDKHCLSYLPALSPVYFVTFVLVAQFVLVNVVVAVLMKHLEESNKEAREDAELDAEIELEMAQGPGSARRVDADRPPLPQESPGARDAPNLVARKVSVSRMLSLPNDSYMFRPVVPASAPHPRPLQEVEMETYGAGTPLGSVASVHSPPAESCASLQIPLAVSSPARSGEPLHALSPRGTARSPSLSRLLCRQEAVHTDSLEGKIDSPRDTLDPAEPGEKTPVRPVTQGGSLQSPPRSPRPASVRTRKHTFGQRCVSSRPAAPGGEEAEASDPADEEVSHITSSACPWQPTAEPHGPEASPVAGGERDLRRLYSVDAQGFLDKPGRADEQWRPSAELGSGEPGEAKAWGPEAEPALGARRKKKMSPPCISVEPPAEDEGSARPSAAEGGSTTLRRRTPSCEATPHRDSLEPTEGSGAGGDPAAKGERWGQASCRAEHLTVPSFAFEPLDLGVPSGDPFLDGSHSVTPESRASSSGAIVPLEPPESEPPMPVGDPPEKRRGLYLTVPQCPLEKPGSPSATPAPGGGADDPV

On to `Cc1ccc2ccc(C(=O)N3CCN(S(=O)(=O)c4ccc(C#N)cc4C)CC3)cc2n1` [Compound 9, 3-Methyl-4-({4-[(2-methyl-7-quinolinyl)carbonyl]-1-piperazinyl}sulfonyl)benzonitrile hydrochloride], for which the IC50 in assay [1] is at most 31.6 µM.

Take `Cc1cc(C#N)ccc1S(=O)(=O)N1CCN(C(=O)c2cccc3ccncc23)CC1` [Compound 26, 4-{[4-(8-Isoquinolinylcarbonyl)-1-piperazinyl]sulfonyl}-3-methylbenzonitrile hydrochloride]: the IC50 in assay [1] was at most 31.6 µM.

`O=C(c1cccc2cccnc12)N1CCN(S(=O)(=O)c2ccc(OC(F)(F)F)cc2)CC1` [Compound 30, 8-{[4-({4-[(Trifluoromethyl)oxy]phenyl}sulfonyl)-1-piperazinyl]carbonyl}quinoline]: in assay [1], the IC50 is at most 31.6 µM.

Take `Cl.O=C(c1ccc2ccccc2n1)N1CCN(S(=O)(=O)c2ccc(C(F)(F)F)cc2)CC1` [Compound 3, 2-[(4-{[4-(Trifluoromethyl)phenyl]sulfonyl}-1-piperazinyl)carbonyl]quinoline hydrochloride]: the “pUD30 (use-dependent)” value in assay [2] (concentration producing 30% use-dependent inhibition, 10th versus 1st depolarising pulse, 10 Hz, -90 mV to +10 mV) is recorded as 5.8; in assay [1] (concentration producing 30% use-dependent inhibition, 10th versus 1st depolarising pulse, 3 Hz, -120 mV to -40 mV, hydrochloride), 5.4. In addition, the “pIC50 (tonic)” value in assay [2] (current elicited by the 1st depolarising pulse inhibited by 50%) is reported as 4.6. Further, in assay [1], the IC50 was 25.1 µM and ≤ 31.6 µM.

As to `Cc1c(C(=O)N2CCN(S(=O)(=O)c3ccc(OC(F)(F)F)cc3)CC2)ccc2cccnc12` [Compound 2, 8-Methyl-7-{[4-({4-[(trifluoromethyl)oxy]phenyl}sulfonyl)-1-piperazinyl]carbonyl}quinoline], in assay [1], the IC50 was at most 31.6 µM.

Take `Cc1cc(C#N)ccc1S(=O)(=O)N1CCN(C(=O)c2ccc3cccnc3c2C)[C@@H](C)C1` [Compound 15, 3-Methyl-4-({(3S)-3-methyl-4-[(8-methyl-7-quinolinyl)carbonyl]-1-piperazinyl}sulfonyl)benzonitrile]: the IC50 in assay [1] is at most 31.6 µM.

Turning to `Cc1cc(C#N)ccc1S(=O)(=O)N1CCN(C(=O)c2ccc3cccnc3c2)CC1` [Compound 7, 3-Methyl-4-{[4-(7-quinolinylcarbonyl)-1-piperazinyl]sulfonyl}benzonitrile hydrochloride], in assay [1], the IC50 is at most 31.6 µM.

Consider `Cc1ccc2ccc(C(=O)N3CCN(S(=O)(=O)c4ccc(C#N)cc4C)C[C@@H]3C)cc2n1` [Compound 10, 3-Methyl-4-({(3S)-3-methyl-4-[(2-methyl-7-quinolinyl)carbonyl]-1-piperazinyl}sulfonyl)benzonitrile], for which, in assay [1], the IC50 was at most 31.6 µM.

Consider `C[C@H]1CN(S(=O)(=O)c2ccc(C(F)(F)F)cc2)CCN1C(=O)c1ccc2cccnc2c1` [Compound 1, 7-[((2S)-2-Methyl-4-{[4-(trifluoromethyl)phenyl]sulfonyl}-1-piperazinyl)carbonyl]quinoline], for which the IC50 in assay [1] was at most 31.6 µM.
